Measured values published in patent US20220073496A1, “NOVEL QUINOLINE DERIVATIVE INHIBITOR” (Nanjing Transthera Biosciences Co., Ltd., priority 2018, published 2022).

Assays:
H1299 cell pAxl = target: T1, H1299 cell pAxl (Homo sapiens, UniProt P30530); assay: Inhibitory activity on the cell pAxl (Western Blot); format: cell-based; conditions: H1299 cells, compound 1.1, 3.3, 10, 30 nM, hGAS6 200 ng/mL
T1 construct: endogenous in cells; host or cells: H1299
T1 sequence (P30530 26-894): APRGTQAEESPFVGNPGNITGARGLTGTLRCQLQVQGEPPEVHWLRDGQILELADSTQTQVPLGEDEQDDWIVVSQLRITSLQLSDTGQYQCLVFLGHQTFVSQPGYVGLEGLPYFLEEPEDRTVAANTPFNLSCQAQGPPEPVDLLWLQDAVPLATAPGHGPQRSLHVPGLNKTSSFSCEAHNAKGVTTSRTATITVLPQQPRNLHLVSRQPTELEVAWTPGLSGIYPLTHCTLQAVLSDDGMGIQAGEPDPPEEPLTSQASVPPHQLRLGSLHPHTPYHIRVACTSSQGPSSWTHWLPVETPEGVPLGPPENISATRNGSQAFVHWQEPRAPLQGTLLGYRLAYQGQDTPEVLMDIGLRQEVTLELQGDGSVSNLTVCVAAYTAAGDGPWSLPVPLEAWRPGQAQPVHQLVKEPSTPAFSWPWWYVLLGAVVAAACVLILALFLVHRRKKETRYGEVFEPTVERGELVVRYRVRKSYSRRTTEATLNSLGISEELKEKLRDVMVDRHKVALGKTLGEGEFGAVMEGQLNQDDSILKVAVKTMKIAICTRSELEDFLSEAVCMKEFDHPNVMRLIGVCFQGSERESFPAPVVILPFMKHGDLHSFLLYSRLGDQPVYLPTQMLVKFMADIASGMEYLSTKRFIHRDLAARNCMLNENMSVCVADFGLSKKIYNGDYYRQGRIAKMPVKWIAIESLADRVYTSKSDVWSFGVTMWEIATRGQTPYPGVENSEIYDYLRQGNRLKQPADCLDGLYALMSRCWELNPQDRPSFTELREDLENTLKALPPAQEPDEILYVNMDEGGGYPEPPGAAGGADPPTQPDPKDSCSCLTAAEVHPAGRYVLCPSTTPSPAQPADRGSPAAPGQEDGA
Protocol: Assay 5: Test for Inhibitory Activities of the Compounds of the Present Invention on the Cell pAxl
H1299 is a non-small cell lung cancer cell.
(§1) Test substances: the compounds of the present invention, wherein the structures thereof were as described above.
Test equipment: protein electrophoresis apparatus (manufactured by Bio Rad), transfer unit (manufactured by Bio Rad), exposure unit (manufactured by Tanon), CO2, cell incubator (manufactured by Thermo).
The H1299 cells were inoculated in a 6-well plate (containing 10% FBS 1640 medium, 5×10^5 cells per well), and adherent cells were cultivated at 37° C. in a 5% CO2 condition for 18 hours. The cells were starved overnight. Different concentrations of compounds were added. The final compound concentrations were 1.1, 3.3, 10, and 30 nM, and the final DMSO content was 1‰. The negative control wells contained the medium containing 1‰ DMSO. After incubating at 37° C. in a 5% CO2 condition for 60 minutes, hGAS6 (R&D, final concentration 200 ng/mL) was added to each well. After further incubating for 60 minutes, the cell total protein was extracted for Western Blot and the […] values were calculated using GraphPad 5.0 software. The inhibitory activity of the compound on the cell pAxl was examined.

[1] = target: T2, Ba/F3 LMNA-NTRK1 G667C cells (Homo sapiens, UniProt P04629, G667C, cells depend on it); assay: Cell viability test (CTG), Ba/F3 LMNA-NTRK1 G667C; format: cell-based; conditions: NTRK1 gene mutant cell, 72 hours, read-out: IC50 Ba/F3 LMNA-NTRK1 G667C
T2 construct: Ba/F3 LMNA-NTRK1 G667C and Ba/F3 LMNA-NTRK1-V573M are NTRK1 gene mutant cells; fused on or other part: P02545 (Prelamin-A/C)
T2 sequence (P04629 whole entry G667C, the tested form may be a part): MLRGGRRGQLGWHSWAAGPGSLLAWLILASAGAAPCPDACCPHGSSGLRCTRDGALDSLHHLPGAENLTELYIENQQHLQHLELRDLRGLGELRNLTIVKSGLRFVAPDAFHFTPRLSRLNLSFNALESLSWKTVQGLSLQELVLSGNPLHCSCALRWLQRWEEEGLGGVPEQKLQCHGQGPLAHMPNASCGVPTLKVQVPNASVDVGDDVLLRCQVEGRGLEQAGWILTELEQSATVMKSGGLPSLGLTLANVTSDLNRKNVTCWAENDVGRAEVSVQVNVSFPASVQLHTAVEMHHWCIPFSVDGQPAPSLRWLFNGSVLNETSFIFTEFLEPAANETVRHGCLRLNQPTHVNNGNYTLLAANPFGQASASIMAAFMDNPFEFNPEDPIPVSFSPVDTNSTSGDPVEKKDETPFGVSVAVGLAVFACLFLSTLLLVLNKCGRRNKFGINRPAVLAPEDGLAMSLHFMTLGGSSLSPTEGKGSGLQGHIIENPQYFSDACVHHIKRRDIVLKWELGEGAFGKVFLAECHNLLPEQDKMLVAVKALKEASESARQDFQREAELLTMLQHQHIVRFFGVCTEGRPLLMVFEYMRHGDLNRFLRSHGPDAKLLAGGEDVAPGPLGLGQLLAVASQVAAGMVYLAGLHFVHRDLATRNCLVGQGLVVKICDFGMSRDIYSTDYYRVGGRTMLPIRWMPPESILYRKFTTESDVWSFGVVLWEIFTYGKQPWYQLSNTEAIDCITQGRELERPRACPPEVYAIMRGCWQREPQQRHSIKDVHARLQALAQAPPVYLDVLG
Excerpt: (§2) Assay 8: Cell viability test of the compounds of the present invention
Ba/F3 LMNA-NTRK1 G667C and Ba/F3 LMNA-NTRK1-V573M are NTRK1 gene mutant cells.
as §1
(§3) Test instrument: SpectraMax multi-label microplate reader.
(§4) Each cell was inoculated in a 96-well plate and adherent cells were cultivated overnight. Different concentrations of the compounds (9 dose groups, 3.16 times DMSO serial dilution) were added to give the final concentration of 0.1-1000 nM, and the final DMSO content was 1‰. The negative control wells contained the medium containing 1‰ DMSO. The cells were incubated at 37° C. in a condition of 5% CO2 and 95% humidity for 72 hours for use. An equal volume of CTG reagent was added to each well, and the cells were lysed by shaking for 5 minutes on an orbital shaker, and incubated for 20 minutes at room temperature to stabilize the cold light signal. The cold light signal was read with a microplate reader. Data were analyzed using GraphPad Prism 5.0 software, and data were fitted using nonlinear S-curve regression to derive a dose-response curve and thereby calculate IC50 values.

TrkB (h) = target: T3, TrkB (h) (Homo sapiens, UniProt Q16620); assay: Enzymatic activity test, TrkB (h); format: biochemical; conditions: 10 μM [γ-33P]-ATP, 40 minutes, room temperature
T3 construct: purchased
T3 sequence (Q16620 32-822): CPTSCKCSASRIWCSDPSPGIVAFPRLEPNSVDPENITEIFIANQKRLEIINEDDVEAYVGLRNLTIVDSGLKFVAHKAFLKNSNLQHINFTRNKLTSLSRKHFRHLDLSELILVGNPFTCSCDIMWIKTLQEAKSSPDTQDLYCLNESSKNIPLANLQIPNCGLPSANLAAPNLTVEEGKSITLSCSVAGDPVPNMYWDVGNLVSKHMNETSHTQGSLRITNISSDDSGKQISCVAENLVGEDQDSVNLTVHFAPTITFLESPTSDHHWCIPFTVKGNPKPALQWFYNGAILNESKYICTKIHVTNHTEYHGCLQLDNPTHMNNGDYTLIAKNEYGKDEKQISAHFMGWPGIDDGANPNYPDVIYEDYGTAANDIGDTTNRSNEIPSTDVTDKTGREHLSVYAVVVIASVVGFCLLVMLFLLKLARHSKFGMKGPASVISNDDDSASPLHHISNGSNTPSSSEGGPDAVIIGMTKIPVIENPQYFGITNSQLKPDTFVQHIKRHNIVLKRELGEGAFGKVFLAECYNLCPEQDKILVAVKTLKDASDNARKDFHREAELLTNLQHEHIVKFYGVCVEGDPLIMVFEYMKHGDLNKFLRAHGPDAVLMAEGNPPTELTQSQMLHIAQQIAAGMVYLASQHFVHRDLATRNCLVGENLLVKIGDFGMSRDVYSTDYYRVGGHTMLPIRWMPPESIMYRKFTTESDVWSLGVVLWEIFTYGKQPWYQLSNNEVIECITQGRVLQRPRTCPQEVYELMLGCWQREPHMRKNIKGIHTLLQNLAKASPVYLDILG
Protocol: Assay 4: Enzymatic Activity Test of the Compound of the Present Invention
Test substances: the compounds of the present invention, wherein the structures and preparations thereof were as described above.
Preparation of the Compound Stock Solution
The compound was dissolved in 100% DMSO to prepare a stock solution with a maximum concentration of 500 μM.
Preparation of the Compound Working Solution
The compound stock solution was diluted to final concentrations of 500, 150, 50, 15. 5, 1.5, 0.5, 0.15 and 0.05 μM to become the compound working solutions (50×).
Preparation of Different Enzyme Reaction Solutions
The TrkB (h) enzyme was dissolved in 8 mM MOPS (pH 7.0), 0.2 mM EDTA, and 0.1 mg/mL poly(Glu, Tyr) 4:1 to prepare an enzyme solution having a final concentration of 3.1 nM. The enzymatic reaction was activated by using 10 mM magnesium acetate and 10 μM [γ-^33P]-ATP to form an Mg/ATP mixed solution,
In a 384-well plate, the compound working solution was added to final concentrations of 10000, 3000, 1000, 300, 100, 30, 10, 3, and 1 nM. Then different enzyme reaction solutions prepared according to the above conditions were added. The incubation was carried out for 40 minutes at room temperature. The test was terminated by the addition of a 0.5% phosphoric acid solution. 10 μL of the reaction solution was taken and dropped to the P30 filter paper. The filter paper was washed 4 times with 0.425% phosphoric acid solution and once with methanol, and then placed on a scintillation counter. The […] IC50 values were calculated using GraphPad 5.0 software.

Ba/F3 LMNA-NTRK1 cells = target: T4, Ba/F3 LMNA-NTRK1 cells (Homo sapiens, UniProt P04629); assay: Cell viability test (CTG), Ba/F3 LMNA-NTRK1; format: cell-based; conditions: NTRK1 wild type cell, 72 hours, read-out: IC50 Ba/F3 LMNA-NTRK1
T4 construct: fused on or other part: P02545 (Prelamin-A/C)
T4 sequence (P04629 whole entry, change not shown, the tested form may be a part): as the sequence (P04629 whole entry G667C, the tested form may be a part) above, with C667G counted along it
Protocol: as §2
Ba/F3 LMNA-NTRK1 is an NTRK1 wild type cell;
as §1, §3, §4

Structure (SMILES) | IC50 (H1299 cell pAxl) | IC50 (TrkB (h)) | GI50 [1] | GI50 (Ba/F3 LMNA-NTRK1 cells)
COc1cc2nccc(Oc3ccc(NC(=O)c4cn(C(C)C)cc(-c5ccc(C)cc5)c4=O)nc3)c2cc1OC [Compound 1, N-(5-((6,7-dimethoxyquinolin-4-yl)oxy)pyridin-2-yl)-1-isopropyl-4-oxo-5-p-tolyl-1,4-dihydropyridin-3-carboxamide] | < 1.1 nM | – | – | –
COc1cc2nccc(Oc3ccc(NC(=O)c4cn(C(C)C)cc(-c5ccc(F)cc5)c4=O)nc3)c2cc1OC [Compound 14, N-(5-((6,7-dimethoxyquinolin-4-yl)oxy)pyridin-2-yl)-5-(4-fluorophenyl)-1-isopropyl-4-oxo-1,4-dihydropyridin-3-carboxamide] | < 1.1 nM | – | – | –
COc1cc2nccc(Oc3cnc(NC(=O)c4cn(C(C)C)cc(-c5ccc(F)cc5)c4=O)nc3)c2cc1OC [Compound 20, N-(5-((6,7-dimethoxyquinolin-4-y)oxy)pyrimidine-2-yl)-5-(4-fluorophenyl)-1-isopropyl-4-oxo-1,4-dihydropyridin-3-carboxamide] | < 1.1 nM | – | – | –
COc1cc2nccc(Oc3ccc(NC(=O)c4nn(C(C)C)cc(-c5ccc(F)cc5)c4=O)cn3)c2cc1OC [Compound 29, N-(6-((6,7-dimethoxyquinolin-4-yl)oxy)pyridin-3-yl)-1-isopropyl-4-oxo-5-para-fluorophenyl-1,4-dihydropyridazine-3-carboxamide] | < 1.1 nM | – | – | –
COc1cc2nccc(Oc3ccc(NC(=O)c4nn(C5CC5)cc(-c5ccc(F)cc5)c4=O)nc3)c2cc1OC [Compound 31] | < 1.1 nM | 3 nM | 1.4 nM | 17.3 nM
COc1cc2nccc(Oc3ncc(NC(=O)c4nn(C5CC5)cc(-c5ccc(F)cc5)c4=O)cn3)c2cc1OC [Compound 37, 1-cyclopropyl-N-(2-((6,7-dimethoxyquinolin-4-yl)oxy)pyrimidine-5-yl)-5-para-fluorophenyl-4-oxo-1,4-dihydropyridazine-3-carboxamide] | < 1.1 nM | 6 nM | – | –
COc1cc2nccc(Oc3ccc(NC(=O)c4cn(C5CC5)nc(-c5ccc(F)cc5)c4=O)cn3)c2cc1OC [Compound 43, 2-cyclopropyl-N-(6-((6,7-dimethoxyquinolin-4-yl)oxy)pyridin-3-yl)-6-para-fluorophenyl-5-oxo-2,5-dihydropyridazine-4-carboxamide] | 3.3 nM | – | – | –
COc1cc2nccc(Oc3cnc(NC(=O)c4cn(C5CC5)nc(-c5ccc(F)cc5)c4=O)nc3)c2cc1OC [Compound 45, 2-cyclopropyl-N-(5-((6,7-dimethoxyquinolin-4-yl)oxy)pyrimidine-2-yl)-6-(4-fluorophenyl)-5-oxo-2,5-dihydropyridazine-4-carboxamide] | 1.1 nM | – | – | –

Second part, led by results:

IC50 (H1299 cell pAxl) | IC50 (TrkB (h)) | Structure (SMILES) | GI50 [1] | GI50 (Ba/F3 LMNA-NTRK1 cells)
< 1.1 nM | 3 nM | COc1cc2nccc(Oc3ccc(NC(=O)c4nn(C(C)C)cc(-c5ccc(F)cc5)c4=O)nc3)c2cc1OC [Compound 15, N-(5-((6,7-dimethoxyquinolin-4-yl)oxy)pyridin-2-yl)-5-(4-fluorophenyl)-1-isopropyl-4-oxo-1,4-dihydropyridazine-3-carboxamide] | 0.09 nM | 3.28 nM
< 1.1 nM | – | COc1cc2nccc(Oc3cnc(NC(=O)c4nn(C(C)C)cc(-c5ccc(F)cc5)c4=O)nc3)c2cc1OC [Compound 16, N-(5-((6,7-dimethoxyquinolin-4-yl)oxy)pyrimidine-2-yl)-5-(4-fluorophenyl)-1-isopropyl-4-oxo-1,4-dihydropyridazine-3-carboxamide] | – | –
< 1.1 nM | – | COc1cc2nccc(Oc3ccc(NC(=O)c4cn(C5CC5)cc(-c5ccc(F)cc5)c4=O)nc3)c2cc1OC [Compound 30, N-(5-((6,7-dimethoxyquinolin-4-yl)oxy)pyridin-2-yl)-1-cyclopropyl-4-oxo-5-para-fluorophenyl-1,4-hydropyridin-3-carboxamide] | – | –
< 1.1 nM | – | COc1cc2nccc(Oc3cnc(NC(=O)c4cn(C5CC5)cc(-c5ccc(F)cc5)c4=O)nc3)c2cc1OC [Compound 32, 1-cyclopropyl-N-(5-((6,7-dimethoxyquinolin-4-yl)oxy)pyrimidine-2-yl)-5-(4-fluorophenyl)-4-oxo-1,4-dihydropyridin-3-carboxamide] | – | –
< 1.1 nM | 8 nM | COc1cc2nccc(Oc3cnc(NC(=O)c4nn(C5CC5)cc(-c5ccc(F)cc5)c4=O)nc3)c2cc1OC [Compound 33] | 3 nM | 73 nM
< 1.1 nM | 4 nM | COc1cc2nccc(Oc3ccc(NC(=O)c4nn(C5CC5)cc(-c5ccc(F)cc5)c4=O)cn3)c2cc1OC [Compound 36] | – | –
< 10 nM | – | COc1cc2nccc(Oc3ccc(NC(=O)c4cn(C(C)C)nc(-c5ccc(F)cc5)c4=O)nc3)c2cc1OC [Compound 41, N-(5-((6,7-dimethoxyquinolin-4-yl)oxy)pyridin-2-yl)-6-(4-fluorophenyl)-2-isopropyl-5-oxo-2,5-dihydropyridazine-4-carboxamide] | – | –
1.1 to 3.3 nM | – | COc1cc2nccc(Oc3ccc(NC(=O)c4cn(C5CC5)nc(-c5ccc(F)cc5)c4=O)nc3)c2cc1OC [Compound 42, 2-cyclopropyl-N-(5--((6,7-dimethoxyquinolin-4-yl)oxy)pyridin-2-yl)-6-(4-fluorophenyl)-5-oxo-2,5-dihydropyridazine-4-carboxamide] | – | –
< 1.1 nM | – | COc1cc2nccc(Oc3ccc(NC(=O)c4nn(C5CC5)cc(-c5ccc(C)cc5)c4=O)nc3)c2cc1OC [Compound 46, 1-cyclopropyl-N-(5-((6,7-dimethoxyquinolin-4-yl)oxy)pyridin-2-yl)-4-oxo-5-p-tolyl-1,4-dihydropyridazine-3-carboxamide] | – | –
